Measurements taken from the supplement of paper PMC11061612.

Experiments:
Assay in all cases: Bliss excess, mean over the matrix (fraction); higher = more synergy
[1] = test system: NCI-H1568 (Lung Adenocarcinoma)
Outline: (§1)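 After 24 hours at 37°C and 5% CO2 in 1536-well plates, cells in DMEM/F12 or RPMI plus 10% FBS received two-drug dose matrices for 72 hours. Viability came from CellTiter-Glo 2.0 luminescence and was scaled as inhibition, anchored at 0 by vehicle wells and at 1 by blank wells. Combination Emax is taken as the second-highest inhibition in the matrix, and Bliss excess as the observed combination effect less EA + EB − EA·EB, with EA and EB the single-agent effects.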

[2] = test system: NUGC-4 (Gastric Carcinoma)
Outline: as §1

GAMG (Glioblastoma) = test system: GAMG (Glioblastoma)
Outline: as §1

[3] = test system: MHH-CALL-2 (B-Lymphoblastic Leukemia)
Outline: as §1

[4] = test system: SNU-449 (Hepatocellular Carcinoma)
Outline: as §1

BE2-M17 (Neuroblastoma) = test system: BE2-M17 (Neuroblastoma)
Outline: as §1

KS-1 (Glioblastoma) = test system: KS-1 (Glioblastoma)
Outline: as §1

[5] = test system: HeLa (Cervical Carcinoma)
Outline: as §1

[6] = test system: WSU-NHL (B-Cell Non-Hodgkin's Lymphoma)
Outline: as §1

A673 (Ewing's Sarcoma) = test system: A673 (Ewing's Sarcoma)
Outline: as §1

| Compound | Bliss excess [1] | Bliss excess [2] | Bliss excess (GAMG (Glioblastoma)) | Bliss excess [3] | Bliss excess [4] | Bliss excess (BE2-M17 (Neuroblastoma)) | Bliss excess (KS-1 (Glioblastoma)) | Bliss excess [5] | Bliss excess [6] | Bliss excess (A673 (Ewing's Sarcoma)) |
| --- | --- | --- | --- | --- | --- | --- | --- | --- | --- | --- |
| CS(=O)(=O)CCNCc1ccc(-c2ccc3ncnc(Nc4ccc(OCc5cccc(F)c5)c(Cl)c4)c3c2)o1 [Lapatinib] + C[C@@H](Oc1cc(-c2cnn(C3CCNCC3)c2)cnc1N)c1c(Cl)ccc(F)c1Cl [Crizotinib] (first compound max 10 µM, 7x7, partner max 10 µM) | -0.0174 | 0.0496 | -0.0277 | 0.0219 | -0.0453 | -0.0652 | -0.0458 | -0.0031 | -0.0515 | -0.0546 |
| CC(=O)c1c(C)c2cnc(Nc3ccc(N4CCNCC4)cn3)nc2n(C2CCCC2)c1=O [Palbociclib] + CC1(C)CCC(CN2CCN(c3ccc(C(=O)NS(=O)(=O)c4ccc(NCC5CCOCC5)c([N+](=O)[O-])c4)c(Oc4cnc5[nH]ccc5c4)c3)CC2)=C(c2ccc(Cl)cc2)C1 [Venetoclax] (first compound max 10 µM, 7x7, partner max 1 µM) | -0.0506 | -0.0246 | -0.0097 | -0.032 | -0.0153 | 0.0218 | -0.0211 | -0.0473 | -0.0137 | -0.0426 |
| CC(=O)c1c(C)c2cnc(Nc3ccc(N4CCNCC4)cn3)nc2n(C2CCCC2)c1=O [Palbociclib] + Cc1c2c(nn1C)CSCc1cc(n(C)n1)CSc1cc(c3ccccc3c1)OCCCc1c(C(=O)O)n(C)c3c-2c(Cl)ccc13 [AZD5991] (first compound max 10 µM, 7x7, partner max 1 µM) | -0.0149 | -0.0486 | -0.0142 | -0.0451 | -0.0187 | 0.0096 | -0.0556 | -0.0225 | -0.0269 | -0.0903 |
| CC(=O)c1c(C)c2cnc(Nc3ccc(N4CCNCC4)cn3)nc2n(C2CCCC2)c1=O [Palbociclib] + Cn1cnc2c(F)c(Nc3ccc(Br)cc3Cl)c(C(=O)NOCCO)cc21 [Selumetinib] (first compound max 10 µM, 7x7, partner max 10 µM) | -0.109 | -0.0292 | -0.0072 | -0.0407 | -0.0006 | -0.0339 | -0.0012 | -0.0499 | 0.107 | -0.009 |
| Cn1cnc2c(F)c(Nc3ccc(Br)cc3Cl)c(C(=O)NOCCO)cc21 [Selumetinib] + C=CCn1c(=O)c2cnc(Nc3ccc(N4CCN(C)CC4)cc3)nc2n1-c1cccc(C(C)(C)O)n1 [AZD1775] (first compound max 10 µM, partner max 1 µM) | -0.0331 | -0.0286 | 0.0063 | -0.0087 | -0.0413 | -0.11 | -0.0037 | -0.0826 | -0.0066 | -0.0806 |
| Cn1cnc2c(F)c(Nc3ccc(Br)cc3Cl)c(C(=O)NOCCO)cc21 [Selumetinib] + CC(C)n1c(=O)n(C)c2cnc3cc(F)c(-c4ccc(OCCCN5CCCCC5)nc4)cc3c21 [AZD1390] (first compound max 10 µM, 7x7, partner max 0.3 µM) | -0.0508 | -0.0045 | -0.0242 | 0.0042 | -0.0464 | -0.0293 | -0.0384 | -0.0437 | -0.0059 | -0.0481 |
| Cn1cnc2c(F)c(Nc3ccc(Br)cc3Cl)c(C(=O)NOCCO)cc21 [Selumetinib] + CCN(CCO)CCCOc1ccc2c(Nc3cc(CC(=O)Nc4cccc(F)c4)[nH]n3)ncnc2c1 [AZD2811] (first compound max 10 µM, 7x7, partner max 1 µM) | -0.0612 | -0.0067 | -0.0213 | 0.306 | -0.0582 | -0.0073 | -0.0324 | -0.0561 | -0.0209 | -0.0233 |
| Cn1cnc2c(F)c(Nc3ccc(Br)cc3Cl)c(C(=O)NOCCO)cc21 [Selumetinib] + C[C@@H]1COCCN1C2=NC(=NC(=C2)C3(CC3)[S@](=N)(=O)C)C4=C5C=CNC5=NC=C4 [AZD6738] (first compound max 10 µM, 7x7, partner max 10 µM) | -0.0261 | 0.0069 | -0.0398 | 0.0085 | -0.0403 | 0.0348 | -0.0315 | 0.0113 | -0.0042 | -0.0537 |
| CC(=O)Nc1cccc(-n2c(=O)n(C3CC3)c(=O)c3c(Nc4ccc(I)cc4F)n(C)c(=O)c(C)c32)c1 [Trametinib] + Cc1nc(-c2cn3c(n2)-c2ccc(-c4cnn(C(C)(C)C(N)=O)c4)cc2OCC3)n(C(C)C)n1 [Taselisib] (first compound max 1 µM, 7x7, partner max 10 µM) | 0.131 | 0.0347 | 0.0415 | 0.188 | -0.0432 | 0.107 | 0.015 | 0.0483 | 0.0079 | 0.229 |
| CC1(C)CCC(CN2CCN(c3ccc(C(=O)NS(=O)(=O)c4ccc(NCC5CCOCC5)c([N+](=O)[O-])c4)c(Oc4cnc5[nH]ccc5c4)c3)CC2)=C(c2ccc(Cl)cc2)C1 [Venetoclax] + C1CN(CCC1(C(=O)N[C@@H](CCO)C2=CC=C(C=C2)Cl)N)C3=NC=NC4=C3C=CN4 [Capivasertib] (first compound max 1 µM, 7x7, partner max 3 µM) | -0.0306 | -0.0673 | -0.0185 | -0.0702 | -0.075 | -0.0682 | -0.0161 | -0.0669 | -0.0282 | -0.0551 |
| CC1(C)CCC(CN2CCN(c3ccc(C(=O)NS(=O)(=O)c4ccc(NCC5CCOCC5)c([N+](=O)[O-])c4)c(Oc4cnc5[nH]ccc5c4)c3)CC2)=C(c2ccc(Cl)cc2)C1 [Venetoclax] + C=CCn1c(=O)c2cnc(Nc3ccc(N4CCN(C)CC4)cc3)nc2n1-c1cccc(C(C)(C)O)n1 [AZD1775] (first compound max 1 µM, partner max 1 µM) | -0.0385 | -0.0733 | 0.0112 | -0.0382 | -0.0353 | -0.0256 | 0.0134 | -0.0459 | -0.0036 | 0.112 |
| CC1(C)CCC(CN2CCN(c3ccc(C(=O)NS(=O)(=O)c4ccc(NCC5CCOCC5)c([N+](=O)[O-])c4)c(Oc4cnc5[nH]ccc5c4)c3)CC2)=C(c2ccc(Cl)cc2)C1 [Venetoclax] + CCN(CCO)CCCOc1ccc2c(Nc3cc(CC(=O)Nc4cccc(F)c4)[nH]n3)ncnc2c1 [AZD2811] (first compound max 1 µM, 7x7, partner max 1 µM) | -0.0339 | -0.0481 | -0.0368 | -0.01 | -0.0642 | 0.107 | -0.0516 | 0.0336 | -0.0879 | 0.0295 |
| CC1(C)CCC(CN2CCN(c3ccc(C(=O)NS(=O)(=O)c4ccc(NCC5CCOCC5)c([N+](=O)[O-])c4)c(Oc4cnc5[nH]ccc5c4)c3)CC2)=C(c2ccc(Cl)cc2)C1 [Venetoclax] + CN(C)CCCOc1ccc(-c2ccc3ncc4c(c3c2)n(C2CCOCC2)c(=O)n4C)cn1 [AZD0156] (first compound max 1 µM, 7x7, partner max 1 µM) | -0.0166 | -0.0644 | -0.0225 | 0.0128 | -0.07 | 0.0093 | -0.007 | -0.0178 | -0.0402 | 0.0265 |
| CC1(C)CCC(CN2CCN(c3ccc(C(=O)NS(=O)(=O)c4ccc(NCC5CCOCC5)c([N+](=O)[O-])c4)c(Oc4cnc5[nH]ccc5c4)c3)CC2)=C(c2ccc(Cl)cc2)C1 [Venetoclax] + COc1cc(Nc2ncc3c(n2)-c2ccc(Cl)cc2C(c2c(F)cccc2OC)=NC3)ccc1C(=O)O [Alisertib] (first compound max 1 µM, 7x7, partner max 10 µM) | -0.0418 | -0.0557 | -0.0024 | 0.165 | -0.0753 | 0.215 | 0.0145 | 0.0517 | -0.0521 | 0.198 |
| CC1(C)CCC(CN2CCN(c3ccc(C(=O)NS(=O)(=O)c4ccc(NCC5CCOCC5)c([N+](=O)[O-])c4)c(Oc4cnc5[nH]ccc5c4)c3)CC2)=C(c2ccc(Cl)cc2)C1 [Venetoclax] + C[C@@H]1COCCN1C2=NC(=NC(=C2)C3(CC3)[S@](=N)(=O)C)C4=C5C=CNC5=NC=C4 [AZD6738] (first compound max 1 µM, 7x7, partner max 10 µM) | -0.0156 | -0.011 | -0.0727 | -0.0357 | -0.0239 | -0.0661 | -0.0368 | -0.0688 | -0.0913 | -0.0024 |
